Reference: paper PMC9034499, “RORγt agonist enhances anti-PD-1 therapy by promoting monocyte-derived dendritic cells through CXCL10 in cancers” (Journal of Experimental & Clinical Cancer Research : CR, 2022)

Tests used:
RORα = target: T1, RORα (Homo sapiens, UniProt P35398); test: RORα Gal4 reporter gene assay; format: cell-based
T1 construct: expressed in transfected cells
T1 sequence (P35398 1-523): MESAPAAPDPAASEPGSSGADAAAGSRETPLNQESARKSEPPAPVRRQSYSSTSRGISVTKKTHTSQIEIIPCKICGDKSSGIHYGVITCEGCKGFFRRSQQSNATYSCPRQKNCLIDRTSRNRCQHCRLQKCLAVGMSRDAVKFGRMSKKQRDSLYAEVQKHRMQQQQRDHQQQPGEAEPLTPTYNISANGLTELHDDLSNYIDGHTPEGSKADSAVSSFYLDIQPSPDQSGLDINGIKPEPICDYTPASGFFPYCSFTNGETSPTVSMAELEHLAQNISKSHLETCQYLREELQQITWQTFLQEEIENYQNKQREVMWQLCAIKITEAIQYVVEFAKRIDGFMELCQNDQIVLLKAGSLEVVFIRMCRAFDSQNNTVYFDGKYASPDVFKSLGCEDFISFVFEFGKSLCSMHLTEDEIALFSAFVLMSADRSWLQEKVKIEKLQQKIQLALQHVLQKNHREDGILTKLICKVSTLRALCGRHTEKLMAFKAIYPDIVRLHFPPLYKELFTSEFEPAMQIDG

RORβ = target: T2, RORβ (Homo sapiens, UniProt Q92753); test: RORβ Gal4 reporter gene assay; format: cell-based
T2 construct: expressed in transfected cells
T2 sequence (Q92753 1-470): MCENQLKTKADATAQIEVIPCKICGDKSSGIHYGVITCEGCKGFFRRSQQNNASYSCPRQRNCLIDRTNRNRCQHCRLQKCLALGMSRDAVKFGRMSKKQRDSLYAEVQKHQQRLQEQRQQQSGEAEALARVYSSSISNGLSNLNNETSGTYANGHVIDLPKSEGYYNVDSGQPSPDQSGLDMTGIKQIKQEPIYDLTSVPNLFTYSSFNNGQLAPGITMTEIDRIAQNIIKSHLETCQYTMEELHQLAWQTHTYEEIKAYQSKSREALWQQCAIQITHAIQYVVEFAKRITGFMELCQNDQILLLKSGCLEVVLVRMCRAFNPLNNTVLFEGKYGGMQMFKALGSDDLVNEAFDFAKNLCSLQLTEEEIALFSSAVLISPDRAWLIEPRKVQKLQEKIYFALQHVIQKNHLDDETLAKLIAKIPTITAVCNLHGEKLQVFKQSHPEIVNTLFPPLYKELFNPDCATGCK
Procedure: The hRORγt LBD coding sequence was inserted into a pBIND expression vector (Promega, E1581) to express the ROR-GAL4 binding domain chimeric receptors. This expression vector and a reporter vector (pGL4.35, which carries a stably integrated GAL4 promoter-driven luciferase reporter gene [luc2P/9XGAL4 UAS/Hygro]) were co-transfected into the HEK293T host cells. The assay was performed according to a previous study. EC50 of the sigmoidal fits were analyzed using Prism 5 and a four-parameter logistic fit equation, Y = bottom + (top–bottom) / (1 + 10(logEC50 − X) × hill slope). "X" is the log of compound concentration, and "Y" is the response, which increases as X increases. Y starts at "bottom" and goes to "top" with a sigmoid shape.
Supplementary file 13046_2022_2289_MOESM2_ESM.pdf: Additional file 2: Fig. S2. Selectivity of RORγt agonists in vitro. […] Lymphoma EL4 cells were treated with various concentrations of 8-074 for 48 hours and analyzed by flow cytometry after Annexin V-FITC/PI staining. […] (h) The relative mRNA expression of Cd19 in B cells as determined by qPCR. […] (i) Relative mRNA expression of Il-1β levels in macrophages as determined by qPCR. ***P < 0.001. (j) Relative mRNA expression of Il-6 in macrophages as determined by qPCR. *P < 0.05. (k) Relative mRNA expression of Il-10 in macrophages as determined by qPCR. *P < 0.05. […]

[1] = Drug toxicity evaluation by histopathology (H&E staining); format: in vivo, mice; details: 50 mg/kg or 100 mg/kg i.p. daily for two weeks
Procedure: We further explored the in vivo efficacy of 8-074. First, we conducted a drug toxicity evaluation by histopathology using H&E staining. […] Given the in vivo toxicity and body weight loss during dose escalation, we determined 50 mg/kg for use in the in vivo mechanistic study. The anti-tumor effect of 8-074 was also tested in two other murine syngeneic tumor models (B16F10 and MC38, which are models of melanoma and colon adenocarcinoma, respectively).
Supplementary file 13046_2022_2289_MOESM3_ESM.pdf: Additional file 3: Fig. S3. Selectivity and safety analysis of 8-074. (a) Representative hematoxylin and eosin (H&E) staining micrograph (200 ×) of heart, liver, lung, kidney, spleen, and intestine sections from mice receiving vehicle, 50 mg/kg, or 100 mg/kg 8-074 for two weeks. Scale bar = 100 μm. Vehicle, daily administration of 50 μL DMSO by intraperitoneal injection; 50 mg/kg and 100 mg/kg, daily administration of the corresponding dose (volume less than or equal to 50 μL) by intraperitoneal injection. The cell morphology, number, and distribution in heart, liver, lung, kidney, spleen, and intestine tissues after 8-074 injection were not different from those in the vehicle group. (b and c) Effects of 8-074 on body weight in mice. Data represents the mean ± SD from biological quadruplicates. All error bars represent mean ± SD. Data are from three independent experiments.

CCS(=O)(=O)c1ccc(CC(=O)Nc2ccc(-c3ccc(CC(C)C)c(C#N)c3)c(C(F)(F)F)c2)cc1 [8-074]
EC50 (RORα): > 10 µM
EC50 (RORβ): > 10 µM
histopathology, H&E staining of organs [1]: No noteworthy necrosis or other abnormality was observed
